Experimental data reported in BindingDB's records for doi:10.1002/cbic.201300625 (Indiana University, 2014).

Key:
Test in all cases: IC50 Determination
[1] = target: T1, Aldehyde dehydrogenase, dimeric NADP-preferring (Homo sapiens, UniProt P30838)
T1 sequence (P30838 whole entry): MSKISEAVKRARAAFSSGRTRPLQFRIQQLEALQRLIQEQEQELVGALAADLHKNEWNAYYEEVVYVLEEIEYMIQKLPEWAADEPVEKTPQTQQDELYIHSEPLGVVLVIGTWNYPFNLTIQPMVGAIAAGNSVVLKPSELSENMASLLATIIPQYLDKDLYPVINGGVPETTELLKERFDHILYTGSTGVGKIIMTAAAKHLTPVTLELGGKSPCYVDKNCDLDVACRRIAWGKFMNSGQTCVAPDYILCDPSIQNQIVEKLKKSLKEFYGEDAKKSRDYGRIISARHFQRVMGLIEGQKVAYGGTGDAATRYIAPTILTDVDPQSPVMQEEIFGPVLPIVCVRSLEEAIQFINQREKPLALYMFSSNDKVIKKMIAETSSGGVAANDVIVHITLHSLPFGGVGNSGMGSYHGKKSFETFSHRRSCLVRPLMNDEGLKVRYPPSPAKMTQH
Protocol: (§1) To determine the IC50 values for CB29 and its analogues, propionaldehyde was used as the substrate for ALDH1A1 and ALDH2 and benzaldehyde was used as the substrate for ALDH3A1. The assays were performed at various concentrations of inhibitors, ranging from 50 nM to 250 uM, following 1 min preincubation. All reactions were initiated by the addition of the aldehyde substrate.

[2] = target: T2, Aldehyde dehydrogenase 1A1 (Homo sapiens, UniProt P00352)
T2 sequence (P00352 whole entry): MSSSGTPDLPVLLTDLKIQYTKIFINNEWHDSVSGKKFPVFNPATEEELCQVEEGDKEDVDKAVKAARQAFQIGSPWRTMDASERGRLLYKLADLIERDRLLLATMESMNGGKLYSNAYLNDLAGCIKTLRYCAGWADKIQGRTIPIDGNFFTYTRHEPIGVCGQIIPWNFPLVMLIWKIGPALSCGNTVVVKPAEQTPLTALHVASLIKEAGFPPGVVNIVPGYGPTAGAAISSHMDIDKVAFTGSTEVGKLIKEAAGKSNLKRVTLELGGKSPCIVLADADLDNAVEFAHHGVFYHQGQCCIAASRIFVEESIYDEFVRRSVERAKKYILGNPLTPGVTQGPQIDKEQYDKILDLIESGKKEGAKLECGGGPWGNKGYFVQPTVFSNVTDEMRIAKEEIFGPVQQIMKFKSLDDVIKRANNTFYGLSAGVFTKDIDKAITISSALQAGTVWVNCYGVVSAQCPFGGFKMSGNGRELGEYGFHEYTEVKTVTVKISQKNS
Protocol: as §1

[3] = target: T1, Aldehyde dehydrogenase, dimeric NADP-preferring; remark: listed apart in the source

Row | SMILES | IC50 [1] | IC50 [2] | Ki [3]
1 | CN(C)c1ccc(Nc2ccc(S(=O)(=O)C(F)(F)F)cc2[N+](=O)[O-])cc1 [CB29 (derivative 5)] | 17 µM | – | –
2 | CS(=O)(=O)c1ccc(Nc2ccc(NCC3CCCC3)cc2)c(S(C)(=O)=O)c1 [CB29 (derivative 6)] | 40 µM | 32 µM | –
3 | CC(C)NS(=O)(=O)c1ccc(Nc2cccc(NC3CC3)c2)c([N+](=O)[O-])c1 [CB29 (derivative 9)] | 26.3 µM | – | –
4 | CC(C)C(=O)Nc1ccc(Nc2ccc(S(C)(=O)=O)cc2[N+](=O)[O-])cc1 [CB29 (derivative 12)] | 19.6 µM | 16.8 µM | –
5 | CNS(=O)(=O)c1ccc(Nc2ccc(NC(=O)CC(C)C)cc2)c([N+](=O)[O-])c1 [CB29 (derivative 13)] | 42.3 µM | 11.6 µM | –
6 | CCN(CC)S(=O)(=O)c1ccc(Nc2ccc(NC(=O)C(C)C)cc2)c([N+](=O)[O-])c1 [CB29 (derivative 14)] | 100 µM | 8.3 µM | –
7 | CC(Nc1ccc(S(C)(=O)=O)cc1[N+](=O)[O-])C(=O)O (configuration not stated) [CB29 (derivative 16)] | – | 50 µM | –
8 | CS(=O)(=O)c1ccc(Nc2ccc3c(c2)CCC3)c([N+](=O)[O-])c1 [CB29 (derivative 17)] | 26.9 µM | – | –
9 | CC(C)NS(=O)(=O)c1ccc(Nc2ccc3c(c2)CCC3)c([N+](=O)[O-])c1 [CB29 (derivative 18)] | 30.5 µM | – | –
10 | CC(C)NS(=O)(=O)c1ccc(NC2CCN(CC(=O)Nc3ccccc3)CC2)c([N+](=O)[O-])c1 [CB29 (derivative 19)] | 25.6 µM | – | –
11 | CC(=O)Nc1ccc(Oc2ccc(S(=O)(=O)C(F)(F)F)cc2[N+](=O)[O-])cc1 [CB29 (derivative 20)] | 100 µM | – | –
12 | CC(=O)Nc1ccc(Nc2ccc(S(C)(=O)=O)cc2[N+](=O)[O-])cc1 [CB29] | 16 µM | – | 4.7 µM
